Assay results as given in patent publication US20090105235A1, “INSECTICIDAL COMPOSITIONS WITH IMPROVED EFFECT” (Bayer CropScience AG, priority 2005, published 2009).
Read-outs that look alike come from different tables or passages of the source.

How the values were obtained:
Assay type in all cases: in vivo
Myzus persicae [1] = test: Myzus persicae test (Example D), bell pepper plants sprayed; conditions: for pest or weed control at 0.8 ppm / pest or weed control at 0.16 ppm / pest or weed control at 4 ppm: Myzus persicae, 144 h, read-out: Kill rate after 6 days, Without penetrant and AS; for Kill rate after 6 days, With penetrant and AS: with penetrant and AS (in each case 1000 ppm)
Protocol: (§1) To produce a suitable preparation of active compound, 1 part by weight of active compound is mixed with the stated amounts of solvent and emulsifier, and the concentrate is diluted with emulsifier-containing water to the desired concentration. If addition of ammonium salts or ammonium salts and penetrant is required, the appropriate amount is added by pipette after dilution of the respective finished preparation solution (in each case 1000 ppm).
Bell pepper plants (Capsicum annuum) which are heavily infested by the green peach aphid (Myzus persicaei) are treated by spraying with the active compound preparation at the desired concentration.
(§2) After the desired period of time, the kill in % is determined. 100% means that all animals have been killed; 0% means that none of the animals have been killed.

Aphis gossypii [2] = test: Aphis gossypii test (Example E), cotton leaves sprayed; conditions: for Kill rate after 6 days, With penetrant and AS: with penetrant and AS (in each case 1000 ppm)
Protocol: as §1
Cotton leaves (Gossypium hirsutum) which are heavily infested by the cotton aphid (Aphis gossypii) are sprayed with an active compound preparation at the desired concentration.
After the desired period of time, the kill in % is determined. 100% means that all aphids have been killed; 0% means that none of the aphids have been killed.

Aphis gossypii [3] = test: Aphis gossypii test (Example A), cotton, spraying upper side of leaf; conditions: active compound 24 g/ha, spray volume 600 l/ha
Protocol: as §1, with “with” for “with emulsifier-containing”, “ammonium salts, phosphonium” for “ammonium”, “penetrants” for “ammonium salts and penetrant”, “solution.” for “solution (in each case 1000 ppm).”
Single-leaf cotton plants (Gossypium hirsutum) which are heavily infested by the cotton aphid (Aphis gossypii) are treated by spraying of the upper side of the leaf (spray volume 600 l/ha) with the active compound preparation at the desired concentration.
as §2

Myzus persicae [4] = test: Myzus persicae test (Example F), bell pepper, spraying underside of leaf; conditions: active compound 0.48 g/ha
Protocol: as §1, with “with” for “with emulsifier-containing”
Single-leaf bell pepper plants (Capsicum annuum) which are heavily infested by the green peach aphid (Myzus persicaei) are treated by spraying of the underside of the leaf with the active compound preparation at the desired concentration.
as §2

Myzus persicae [5] = test: Myzus persicae test (Example G), bell pepper, spraying upper side of leaf; conditions: active compound 2.4 g/ha
Protocol: as §1, with “with” for “with emulsifier-containing”
Single-leaf bell pepper plants (Capsicum annuum) which are heavily infested by the green peach aphid (Myzus persicaei) are treated by spraying of the upper side of the leaf with the active compound preparation at the desired concentration.
as §2

Aphis gossypii [6] = test: Aphis gossypii test (APHIGO contact) (Example H), cotton, spraying underside of leaf; conditions: active compound 0.192 g/ha
Protocol: as §1, with “with” for “with emulsifier-containing”
Single-leaf cotton plants (Gossypium hirsutum) which are heavily infested by the cotton aphid (Aphis gossypii) are treated by spraying of the underside of the leaf with the active compound preparation at the desired concentration.
as §2

Aphis gossypii [7] = test: Aphis gossypii test (APHIGO translaminar) (Example I), cotton, spraying upper side of leaf; conditions: active compound 0.192 g/ha
Protocol: as §1, with “with” for “with emulsifier-containing”
Single-leaf cotton plants (Gossypium hirsutum) which are heavily infested by the cotton aphid (Aphis gossypii) are treated by spraying of the upper side of the leaf with the active compound preparation at the desired concentration.
as §2

[8] = active compound 0.8 ppm, without penetrant and AS, 6 days
[9] = active compound 0.8 ppm, 6 days
[10] = Aphis gossypii, 144 h, active compound 0.8 ppm, without penetrant and AS, 6 days, read-out: Kill rate after 6 days, Without penetrant and AS
[11] = active compound 0.16 ppm, 6 days
[12] = Aphis gossypii, 144 h, read-out: Kill rate after 6 days, Without penetrant and AS
[13] = with penetrant and AS (in each case 1000 ppm)
[14] = active compound 0.16 ppm, without penetrant and AS, 6 days
[15] = Aphis gossypii, 144 h, active compound 0.16 ppm, without penetrant and AS, 6 days, read-out: Kill rate after 6 days, Without penetrant and AS

## C#CCN(CCN/C(=C/[N+](=O)[O-])OC)Cc1ccc(Cl)nc1 [Ih-2]
Myzus persicae [1]; [8]
  pest or weed control at 0.8 ppm: 80%
Myzus persicae [1]; [9]
  Kill rate after 6 days, With penetrant and AS: 98%
Aphis gossypii [2]; [10]
  pest or weed control at 0.8 ppm: 65%
Aphis gossypii [2]; [9]
  Kill rate after 6 days, With penetrant and AS: 90%

## O=C/C(=C1/NCCN1Cc1ccc(Cl)nc1)[N+](=O)[O-] [Ie-2]
Myzus persicae [1]
  pest or weed control at 0.16 ppm: 10%
Myzus persicae [1]; [11]
  Kill rate after 6 days, With penetrant and AS: 95%
Aphis gossypii [2]; [12]
  pest or weed control at 0.16 ppm: 10%
Aphis gossypii [2]; [11]
  Kill rate after 6 days, With penetrant and AS: 95%

## CS/C(=N\[N+](=O)[O-])NCCN(Cc1ccc(Cl)nc1)CC1CC1 [Ih-4]
Aphis gossypii [2]; [10]
  pest or weed control at 0.8 ppm: 15%
Aphis gossypii [2]; [9]
  Kill rate after 6 days, With penetrant and AS: 45%

## C/C(=N\C#N)N(C)Cc1ccc(Cl)nc1 [Ia-5, acetamiprid, reference compound]
Myzus persicae [1]
  pest or weed control at 0.16 ppm: 0%
Myzus persicae [1]; [11]
  Kill rate after 6 days, With penetrant and AS: 90%

## O=[N+]([O-])/N=C1\NCCN1Cc1ccc(Cl)nc1 [Ia-7, imidacloprid, reference compound]
Myzus persicae [1]
  pest or weed control at 4 ppm: 40%
Myzus persicae [1]; active compound 4 ppm, 6 days
  Kill rate after 6 days, With penetrant and AS: 100%
Aphis gossypii [2]; [12]
  pest or weed control at 4 ppm: 15%
Aphis gossypii [2]; active compound 4 ppm, 6 days
  Kill rate after 6 days, With penetrant and AS: 95%

## CN1CN(C)/C(=N\[N+](=O)[O-])N(Cc2cnc(Cl)s2)C1 [Ia-9, AKD-1022]
Myzus persicae [1]
  pest or weed control at 0.8 ppm: 70%
Myzus persicae [1]; [9]
  Kill rate after 6 days, With penetrant and AS: 100%
Aphis gossypii [2]; [12]
  pest or weed control at 0.8 ppm: 80%
Aphis gossypii [2]; [9]
  Kill rate after 6 days, With penetrant and AS: 100%

## N#C/N=C1\SCCN1Cc1ccc(Cl)nc1 [Ia-3, thiacloprid, reference compound]
Myzus persicae [1]
  pest or weed control at 0.16 ppm: 0%
Myzus persicae [1]; [11]
  Kill rate after 6 days, With penetrant and AS: 50%
Aphis gossypii [2]; [12]
  pest or weed control at 0.16 ppm: 0%
Aphis gossypii [2]; [11]
  Kill rate after 6 days, With penetrant and AS: 70%

## CON/C(=N\[N+](=O)[O-])NCc1cnc(Cl)s1 [(Ib-3)]
Aphis gossypii [3]; with ammonium sulphate 1 g/l
  Kill rate after 3 days, With AS 1 g/l: 99%
Aphis gossypii [3]; without ammonium sulphate
  Kill rate after 3 days, Without AS: 77%

## CN/C(=C\[N+](=O)[O-])C(C)c1ccc(Cl)nc1 (stereo not drawn) [Id-1]
Myzus persicae [1]
  pest or weed control at 0.8 ppm: 0%
Myzus persicae [1]; [9]
  Kill rate after 6 days, With penetrant and AS: 90%
Aphis gossypii [2]; [12]
  pest or weed control at 0.8 ppm: 0%
Aphis gossypii [2]; [9]
  Kill rate after 6 days, With penetrant and AS: 55%

## CN/C(=N\[N+](=O)[O-])NCc1cnc(Cl)s1 [Ia-2, clothianidin, reference compound]
Myzus persicae [1]
  pest or weed control at 0.8 ppm: 60%
Myzus persicae [1]; [9]
  Kill rate after 6 days, With penetrant and AS: 100%

## CN/C(=N\[N+](=O)[O-])NCC1CCOC1 (stereo not drawn) [Ia-4, dinotefuran, reference compound]
Myzus persicae [1]
  pest or weed control at 4 ppm: 10%
Myzus persicae [1]; active compound 4 ppm, 6 days
  Kill rate after 6 days, With penetrant and AS: 80%
Aphis gossypii [2]; [12]
  pest or weed control at 0.8 ppm: 0%
Aphis gossypii [2]; [9]
  Kill rate after 6 days, With penetrant and AS: 35%

## O=[N+]([O-])/N=C1\NCCN1Cc1cnc(Cl)s1 [Ia-8, imidaclothiz, reference compound]
Aphis gossypii [2]; [12]
  pest or weed control at 0.8 ppm: 65%
Aphis gossypii [2]; [9]
  Kill rate after 6 days, With penetrant and AS: 95%

## C/N=C(\C(=C/N(C)C)[N+](=O)[O-])N(C)Cc1ccc(Cl)nc1 [Ic-1]
Myzus persicae [1]
  pest or weed control at 0.8 ppm: 0%
Myzus persicae [1]; [9]
  Kill rate after 6 days, With penetrant and AS: 95%
Aphis gossypii [2]; [12]
  pest or weed control at 0.8 ppm: 5%
Aphis gossypii [2]; [9]
  Kill rate after 6 days, With penetrant and AS: 60%
Myzus persicae [4]; [13]
  Kill rate after 7 days, With penetrant and AS: 67%
Myzus persicae [4]; without penetrant and AS
  Kill rate after 7 days, Without penetrant and AS: 0%
Myzus persicae [5]; [13]
  Kill rate after 7 days, With penetrant and AS: 53%
Myzus persicae [5]; without penetrant and AS
  Kill rate after 7 days, Without penetrant and AS: 0%
Aphis gossypii [6]; [13]
  Kill rate after 7 days, With penetrant and AS: 70%
Aphis gossypii [6]; without penetrant and AS
  Kill rate after 7 days, Without penetrant and AS: 0%

## O=C1C=C(NCc2ccc(Cl)nc2)CO1 [If-2]
Myzus persicae [1]; [14]
  pest or weed control at 0.16 ppm: 0%
Myzus persicae [1]; [11]
  Kill rate after 6 days, With penetrant and AS: 50%
Aphis gossypii [2]; [15]
  pest or weed control at 0.16 ppm: 0%
Aphis gossypii [2]; [11]
  Kill rate after 6 days, With penetrant and AS: 50%

## CCN(Cc1ccc(Cl)nc1)/C(=C/[N+](=O)[O-])NC [Ia-6, nitenpyram, reference compound]
Myzus persicae [1]
  pest or weed control at 0.8 ppm: 10%
Myzus persicae [1]; [9]
  Kill rate after 6 days, With penetrant and AS: 90%
Aphis gossypii [2]; [12]
  pest or weed control at 0.8 ppm: 25%
Aphis gossypii [2]; [9]
  Kill rate after 6 days, With penetrant and AS: 99%

## C=CCN(CCN/C(=C/[N+](=O)[O-])SC)Cc1ccc(Cl)nc1 [Ih-1]
Myzus persicae [1]; [8]
  pest or weed control at 0.8 ppm: 20%
Myzus persicae [1]; [9]
  Kill rate after 6 days, With penetrant and AS: 98%
Aphis gossypii [2]; [10]
  pest or weed control at 0.8 ppm: 5%
Aphis gossypii [2]; [9]
  Kill rate after 6 days, With penetrant and AS: 95%

## CN(Cc1ccc(Cl)nc1)C1=CC(=O)OC1 [If-1]
Myzus persicae [1]; [14]
  pest or weed control at 0.16 ppm: 20%
Myzus persicae [1]; [11]
  Kill rate after 6 days, With penetrant and AS: 85%
Aphis gossypii [2]; [15]
  pest or weed control at 0.16 ppm: 30%
Aphis gossypii [2]; [11]
  Kill rate after 6 days, With penetrant and AS: 75%
Aphis gossypii [7]; [13]
  Kill rate after 7 days, With penetrant and AS: 70%
Aphis gossypii [7]; without penetrant and AS
  Kill rate after 7 days, Without penetrant and AS: 0%

## CN1COCN(Cc2cnc(Cl)s2)/C1=N/[N+](=O)[O-] [Ia-1, thiamethoxam, reference compound]
Myzus persicae [1]
  pest or weed control at 0.16 ppm: 10%
Myzus persicae [1]; [11]
  Kill rate after 6 days, With penetrant and AS: 85%
Aphis gossypii [2]; [12]
  pest or weed control at 0.16 ppm: 0%
Aphis gossypii [2]; [11]
  Kill rate after 6 days, With penetrant and AS: 40%

## C#CCN(CCN/C(=N/[N+](=O)[O-])OC)Cc1ccc(Cl)nc1 [Ih-3]
Aphis gossypii [2]; [10]
  pest or weed control at 0.8 ppm: 15%
Aphis gossypii [2]; [9]
  Kill rate after 6 days, With penetrant and AS: 55%
